Test results published in US9029359B2, “Heteroaryl Btk inhibitors” (Biogen Idec MA, Inc., priority 2009, dated 2015).

Biological target: T1, BTK (Homo sapiens, UniProt Q06187)
T1 construct: purchased Upstate 14-552
Assay: In vitro BTK kinase assay: BTK-POLYGAT-LS ASSAY
Type: biochemical
Conditions: ATP 10 uM
Outline: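 BTK phosphorylation of polyGAT (100 nM final) with ATP at 10 μM final, 10 mM Tris-HCl pH 7.5 kinase buffer, quenched by EDTA after 30 min. Potency given as IC50.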

T1 sequence (Q06187 whole entry): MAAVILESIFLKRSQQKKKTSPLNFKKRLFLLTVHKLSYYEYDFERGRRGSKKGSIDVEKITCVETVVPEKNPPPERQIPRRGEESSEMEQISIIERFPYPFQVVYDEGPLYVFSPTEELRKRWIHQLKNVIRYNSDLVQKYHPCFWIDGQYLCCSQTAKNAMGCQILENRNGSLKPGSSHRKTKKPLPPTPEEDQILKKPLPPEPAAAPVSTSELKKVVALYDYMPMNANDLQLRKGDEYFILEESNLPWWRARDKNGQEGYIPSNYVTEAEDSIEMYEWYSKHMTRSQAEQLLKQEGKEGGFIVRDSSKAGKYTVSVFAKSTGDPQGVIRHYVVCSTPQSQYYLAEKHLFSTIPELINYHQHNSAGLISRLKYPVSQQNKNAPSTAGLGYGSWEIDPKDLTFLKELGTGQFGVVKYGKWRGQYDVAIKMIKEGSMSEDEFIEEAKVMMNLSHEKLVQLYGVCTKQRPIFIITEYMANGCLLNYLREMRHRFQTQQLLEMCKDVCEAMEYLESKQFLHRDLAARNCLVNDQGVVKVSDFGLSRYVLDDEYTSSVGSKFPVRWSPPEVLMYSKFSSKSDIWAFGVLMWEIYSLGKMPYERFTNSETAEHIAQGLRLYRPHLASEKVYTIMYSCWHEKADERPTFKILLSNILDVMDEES

SMILES	IC50 [nM]
O=C(N[C@@H]1CCCN(c2ncnc3[nH]cc(F)c23)C1)[C@H](Nc1cc(Cl)cc(Cl)c1)C1CC1 [Example 392]	1000 to 10000
CN(C)S(=O)(=O)c1ccccc1NCC(=O)N[C@@H]1CCCN(c2ncnc3[nH]ccc23)C1 [Example 288]	100 to 999
O=C(CNc1cc(C(F)(F)F)ccc1F)N[C@@H]1CCCN(c2ncnc3[nH]ccc23)C1 [Example 437]	1000 to 10000
O=C(CNCC1CCCCC1)NC1CCCN(c2ncnc3[nH]ccc23)C1 (stereo not drawn) [Example 357]	> 10000
Cc1cc(NCC(=O)NC2CCCN(c3ncnc4[nH]ccc34)C2)n(C(C)(C)C)n1 (stereo not drawn) [Example 58, (N-(1-(7H-pyrrolo[2,3-d]pyrimidin-4-yl)piperidin-3-yl)-2-(1-tert-butyl-3-methyl-1H-pyrazol-5-ylamino)acetamide)]	> 10000
CN(C1CCCC1)S(=O)(=O)c1ccccc1NCC(=O)N[C@@H]1CCCN(c2ncnc3[nH]ncc23)C1 [Example 211]	< 100
O=C(CNc1cc(F)cc(C(F)(F)F)c1)N[C@@H]1CCCN(c2ncnc3[nH]ccc23)C1 [Example 264]	< 100
Cc1ccc(NCC(=O)N[C@@H]2CCCN(c3ncnc4[nH]ccc34)C2)cc1Cl [Example 287]	100 to 999
CC(C)(C)[C@@H](Nc1cc(Cl)cc(Cl)c1)C(=O)N[C@@H]1CCCN(c2ncnc3[nH]ccc23)C1 [Example 202]	< 100
CC1CCN(S(=O)(=O)c2ccccc2NCC(=O)N[C@@H]2CCCN(c3ncnc4[nH]ncc34)C2)CC1 [Example 212]	< 100
Cn1ccc(-c2cccc(NCC(=O)NC3CCCN(c4ncnc5[nH]ccc45)C3)c2)n1 (stereo not drawn) [Example 60]	1000 to 10000
O=C(N[C@@H]1CCCN(c2ncnc3[nH]ccc23)C1)C1(Nc2ccccc2)CCCC1 [Example 127, (R)—N-(1-(7H-pyrrolo[2,3-d]pyrimidin-4-yl)piperidin-3-yl)-1-(phenylamino)cyclopentanecarboxamide]	1000 to 10000
CN(C)Cc1cccc(NCC(=O)NC2CCCN(c3ncnc4[nH]ccc34)C2)c1 (stereo not drawn) [Example 345]	> 10000
CN1CCN(S(=O)(=O)c2ccccc2NCC(=O)N[C@@H]2CCCN(c3ncnc4[nH]ccc34)C2)CC1 [Example 377]	1000 to 10000
CCCc1ccccc1NCC(=O)N[C@@H]1CCCN(c2ncnc3[nH]ccc23)C1 [Example 259]	< 100
O=C(CNc1ccc2[nH]ncc2c1)N[C@@H]1CCCN(c2ncnc3[nH]ccc23)C1 [Example 406]	1000 to 10000
CCN(C)S(=O)(=O)c1ccccc1NCC(=O)N[C@@H]1CCCN(c2ncnc3[nH]ccc23)C1 [Example 207]	< 100
Cc1cccc(NCC(=O)N[C@@H]2CCCN(c3ncnc4[nH]ccc34)C2)c1 [Example 237]	100 to 999
Cc1c(F)cccc1NCC(=O)N[C@@H]1CCCN(c2ncnc3[nH]ccc23)C1 [Example 267]	100 to 999
CC(C)(C)[C@@H](Nc1ccccc1)C(=O)N[C@@H]1CCCN(c2ncnc3[nH]ccc23)C1 [Example 108, (R)—N—((R)-1-(7H-pyrrolo[2,3-d]pyrimidin-4-yl)piperidin-3-yl)-3,3-dimethyl-2-(phenylamino)butanamide]	100 to 999
CN(C)S(=O)(=O)c1ccc(F)cc1NCC(=O)N[C@@H]1CCCN(c2ncnc3[nH]ccc23)C1 [Example 246]	100 to 999
CCOc1ccccc1NCC(=O)N[C@@H]1CCCN(c2ncnc3[nH]ccc23)C1 [Example 310]	100 to 999
Cn1ncc2c(N3CCC[C@@H](NC(=O)[C@H](Nc4cc(F)cc(Cl)c4)C4CC4)C3)ncnc21 [Example 137, (R)-2-(3-chloro-5-fluorophenylamino)-2-cyclopropyl-N—((R)-1-(1-methyl-1H-pyrazolo[3,4-d]pyrimidin-4-yl)piperidin-3-yl)acetamide]	1000 to 10000
C[C@H]1CCN(c2ncnc3[nH]ncc23)C[C@@H]1NC(=O)CNc1ccccc1S(=O)(=O)N1CCCCC1 [Example 366]	< 100
COc1ccccc1NCC(=O)NC1CCCN(c2ncnc3[nH]ccc23)C1 (stereo not drawn) [Example 37, (N-(1-(7H-pyrrolo[2,3-d]pyrimidin-4-yl)piperidin-3-yl)-2-(2-methoxyphenylamino)acetamide)]	100 to 999
CC(C)Oc1cccc(NCC(=O)N[C@@H]2CCCN(c3ncnc4[nH]ccc34)C2)c1 [Example 315]	100 to 999
CCC[C@@H](Nc1cc(Cl)cc(Cl)c1)C(=O)N[C@@H]1CCCN(c2ncnc3[nH]ccc23)C1 [Example 178]	< 100
Cc1cc(NCC(=O)N[C@@H]2CCCN(c3ncnc4[nH]ccc34)C2)ccc1Cl [Example 415]	1000 to 10000
CC(=O)Nc1cccc(NCC(=O)NC2CCCN(c3ncnc4[nH]ccc34)C2)c1 (stereo not drawn) [Example 358]	> 10000

More lines, now with the values ahead:

IC50 [nM]	SMILES
< 100	O=C(CNc1ccccc1S(=O)(=O)N1CCCCC1)N[C@@H]1CCCN(c2ncnc3[nH]ncc23)C1 [Example 183]
< 100	O=C(CNc1ccccc1S(=O)(=O)N1CCCC1)N[C@@H]1CCCN(c2ncnc3[nH]ccc23)C1 [Example 203]
100 to 999	O=C(CNc1ccccc1OCC1CC1)N[C@@H]1CCCN(c2ncnc3[nH]ncc23)C1 [Example 380]
< 100	CCCN(CC)S(=O)(=O)c1ccccc1NCC(=O)N[C@@H]1CCCN(c2ncnc3[nH]ncc23)C1 [Example 172]
100 to 999	N#Cc1cc(Cl)cc(NCC(=O)N[C@@H]2CCCN(c3ncnc4[nH]ccc34)C2)c1 [Example 297]
1000 to 10000	O=C(CNc1cc(C(F)(F)F)ccc1N1CCCCC1)N[C@@H]1CCCN(c2ncnc3[nH]ccc23)C1 [Example 423]
1000 to 10000	Cc1ccc(C)c(NCC(=O)N[C@@H]2CCCN(c3ncnc4[nH]ccc34)C2)c1 [Example 427]
< 100	CC[C@@H](Nc1cc(F)cc(Cl)c1)C(=O)N[C@@H]1CCCN(c2ncnc3[nH]ncc23)C1 [Example 129, (R)—N—((R)-1-(1H-pyrazolo[3,4-d]pyrimidin-4-yl)piperidin-3-yl)-2-(3-chloro-5-fluorophenylamino)butanamide]
1000 to 10000	O=C(CNc1cccc(N2CCCC2=O)c1)NC1CCCN(c2ncnc3[nH]ccc23)C1 (stereo not drawn) [Example 338]
< 100	C[C@H](O)[C@@H](Nc1cc(F)cc(Cl)c1)C(=O)N[C@@H]1CCCN(c2ncnc3[nH]ncc23)C1 [Example 174]
100 to 999	O=C(CNC(=O)Nc1ccccc1)NC1CCCN(c2ncnc3[nH]ccc23)C1 (stereo not drawn) [Example 2, (N-(1-(7H-pyrrolo[2,3-d]pyrimidin-4-yl)piperidin-3-yl)-2-(3-phenylureido)acetamide)]
1000 to 10000	CC(C)Oc1cccc(NCC(=O)NC2CCCN(c3ncnc4[nH]ccc34)C2)c1 (stereo not drawn) [Example 50, (N-(1-(7H-pyrrolo[2,3-d]pyrimidin-4-yl)piperidin-3-yl)-2-(3-isopropoxyphenylamino)acetamide)]
100 to 999	C[C@@H](O)[C@@H](Nc1cc(F)cc(Cl)c1)C(=O)N[C@@H]1CCCN(c2ncnc3[nH]ccc23)C1 [Example 307]
1000 to 10000	Cc1ccc(NCC(=O)N[C@@H]2CCCN(c3ncnc4[nH]ccc34)C2)c(F)c1 [Example 420]
< 100	O=C(CNc1ccccc1Oc1ccccc1)N[C@@H]1CCCN(c2ncnc3[nH]ncc23)C1 [Example 204]
< 100	CCN(C(C)C)S(=O)(=O)c1ccccc1NCC(=O)N[C@@H]1CCCN(c2ncnc3[nH]ncc23)C1 [Example 196]

IC50 [nM]	SMILES
100 to 999	CCC[C@@H](Nc1ccccc1C(C)C)C(=O)N[C@@H]1CCCN(c2ncnc3[nH]ccc23)C1 [Example 279]
> 10000	CNC(=O)c1cnc(NC2CCCN(c3ncnc4[nH]ccc34)C2)s1 (stereo not drawn) [Example 344]
1000 to 10000	CC(C)c1ccc(NCC(=O)N[C@@H]2CCCN(c3ncnc4[nH]ccc34)C2)cc1 [Example 443]
> 10000	CC(C)(C)c1ccc(NCC(=O)NC2CCCN(c3ncnc4[nH]ccc34)C2)cc1 (stereo not drawn) [Example 19, (N-(1-(7H-pyrrolo[2,3-d]pyrimidin-4-yl)piperidin-3-yl)-2-(4-tert-butylphenylamino)acetamide)]
< 100	CC(C)CCOc1cccc(NCC(=O)N[C@@H]2CCCN(c3ncnc4[nH]ccc34)C2)c1 [Example 283]
100 to 999	O=C(CNc1ccccc1Cl)NC1CCCN(c2ncnc3[nH]ccc23)C1 (stereo not drawn) [Example 20, (N-(1-(7H-pyrrolo[2,3-d]pyrimidin-4-yl)piperidin-3-yl)-2-(2-chlorophenylamino)acetamide)]
100 to 999	O=C(CNc1c(F)cccc1F)N[C@@H]1CCCN(c2ncnc3[nH]ccc23)C1 [Example 321]
100 to 999	C[C@@H](Nc1ccccc1)C(=O)NC1CCCN(c2ncnc3[nH]ccc23)C1 (stereo partly drawn) [Example 101, (2R)—N-(1-(7H-pyrrolo[2,3-d]pyrimidin-4-yl)piperidin-3-yl)-2-(phenylamino)propanamide]
1000 to 10000	CN(C)C(=O)c1cccc(NCC(=O)NC2CCCN(c3ncnc4[nH]ccc34)C2)c1 (stereo not drawn) [Example 43, (3-(2-(1-(7H-pyrrolo[2,3-d]pyrimidin-4-yl)piperidin-3-ylamino)-2-oxoethylamino)-N,N-dimethylbenzamide)]
1000 to 10000	O=C(O)CC[C@@H](Nc1ccccc1)C(=O)N[C@@H]1CCCN(c2ncnc3[nH]ccc23)C1 [Example 425]
100 to 999	O=C(CNc1cccc(F)c1F)NC1CCCN(c2ncnc3[nH]ccc23)C1 (stereo not drawn) [Example 71, (N-(1-(7H-pyrrolo[2,3-d]pyrimidin-4-yl)piperidin-3-yl)-2-(2,3-difluorophenylamino)acetamide)]
1000 to 10000	O=C(CNC(c1ccccc1)c1ccccc1)N[C@@H]1CCCN(c2ncnc3[nH]ccc23)C1 [Example 460]
< 100	CCC[C@@H](Nc1cc(Cl)cc(Cl)c1)C(=O)N[C@H]1CN(c2ncnc3[nH]ncc23)CC[C@@H]1C [Example 153]
< 100	C[C@H]1CCN(c2ncnc3[nH]ncc23)C[C@@H]1NC(=O)[C@H](Nc1cc(Cl)cc(Cl)c1)C1CC1 [Example 152, (R)-2-cyclopropyl-2-(3,5-dichlorophenylamino)-N-((3R,4S)-4-methyl-1-(1H-pyrazolo[3,4-d]pyrimidin-4-yl)piperidin-3-yl)acetamide]
< 100	C[C@H](O)[C@@H](Nc1cc(F)cc(Cl)c1)C(=O)N[C@@H]1CCCN(c2ncnc3[nH]ccc23)C1 [Example 206]
